How the values were obtained:
NCI-H1975 [1] = test: Antiproliferative activity against human NCI-H1975 cells harboring EGFR T790M/L858R mutant by MTT assay; type: functional, cell-based
[2] = Selectivity ratio of IC50 for antiproliferative activity against human NCI-H292 cells harboring wild-type EGFR to IC50 for antiproliferative activity against human NCI-H1975 cells harboring EGFR T790M/L858R mutant; type: functional
NCI-H292 = test: Antiproliferative activity against human NCI-H292 cells harboring wild-type EGFR by MTT assay; type: functional, cell-based
PC-9 [3] = test: Antiproliferative activity against human PC-9 cells harboring EGFR L858R mutant by MTT assay; type: functional, cell-based
[4] = Antiproliferative activity against human DiFi cells; type: functional, cell-based
[5] = Antiproliferative activity against human RPC9 cells; type: functional, cell-based
PC-9 [6] = test: Antiproliferative activity against human PC-9 cells; type: functional, cell-based
NCI-H1975 [7] = test: Antiproliferative activity against human NCI-H1975 cells; type: functional, cell-based
SK-BR-3 = test: Antiproliferative activity against human SK-BR-3 cells; type: functional, cell-based
BT-474 = test: Antiproliferative activity against human BT-474 cells; type: functional, cell-based
[8] = Cytotoxicity against HEK293-A cells assessed as reduction in cell viability by MTT assay; type: cell-based; conditions: Homo sapiens
NCI-H1975 [9] = test: Antitumor activity against human NCI-H1975 cells harboring EGFR T790M/L858R mutant xenografted in nude mouse assessed as tumor growth inhibition at 15 mg/kg, po administered once daily for 7 days relative to control; type: functional; conditions: time 7 day
[10] = Cytotoxicity against HLF cells assessed as reduction in cell viability by MTT assay; type: cell-based; conditions: Homo sapiens
HK-2 = test: Cytotoxicity against HK-2 cells assessed as reduction in cell viability by MTT assay; type: cell-based; conditions: Homo sapiens
NCI-H1975 [11] = test: Antitumor activity against human NCI-H1975 cells harboring EGFR T790M/L858R mutant xenografted in nude mouse assessed as tumor volume at 15 mg/kg, po administered once daily for 7 days (reference value: 843 mm3); type: functional; conditions: time 7 day
[12] = AUC (0 to t) in Sprague-Dawley rat at 10 mg/kg, po administered as single dose; type: ADME, organism-based; set-up: dose 10 mg/kg; conditions: in vivo
[13] = MRT in Sprague-Dawley rat at 2 mg/kg, iv administered as single dose; type: ADME, organism-based; conditions: in vivo
[14] = Clearance in Sprague-Dawley rat at 2 mg/kg, iv administered as single dose; type: ADME, organism-based; conditions: in vivo
[15] = Half life in Sprague-Dawley rat at 2 mg/kg, iv administered as single dose; type: ADME, organism-based; conditions: in vivo
[16] = AUC (0 to infinity) in Sprague-Dawley rat at 2 mg/kg, iv administered as single dose; type: ADME, organism-based; set-up: route intravenous, time infinity, dose 2 mg/kg; conditions: in vivo
[17] = Oral bioavailability in Sprague-Dawley rat at 10 mg/kg administered as single dose; type: ADME, organism-based; conditions: in vivo
[18] = AUC (0 to infinity) in Sprague-Dawley rat at 10 mg/kg, po administered as single dose; type: ADME, organism-based; set-up: time infinity, route oral, dose 10 mg/kg; conditions: in vivo
[19] = Tmax in Sprague-Dawley rat at 10 mg/kg, po administered as single dose; type: ADME, organism-based; conditions: in vivo
[20] = AUC (0 to t) in Sprague-Dawley rat at 2 mg/kg, iv administered as single dose; type: ADME, organism-based; set-up: dose 2 mg/kg; conditions: in vivo
[21] = Half life in Sprague-Dawley rat at 10 mg/kg, po administered as single dose; type: ADME, organism-based; conditions: in vivo
[22] = Cmax in Sprague-Dawley rat at 10 mg/kg, po administered as single dose; type: ADME, organism-based; set-up: route oral, dose 10 mg/kg; conditions: in vivo
[23] = Cmax in Sprague-Dawley rat at 2 mg/kg, iv administered as single dose; type: ADME, organism-based; set-up: route intravenous, dose 2 mg/kg; conditions: in vivo
[24] = MRT in Sprague-Dawley rat at 10 mg/kg, po administered as single dose; type: ADME, organism-based; conditions: in vivo

Compound	IC50 (NCI-H1975 [1])	Ratio IC50 [2]	IC50 (NCI-H292)	IC50 (PC-9 [3])	other results
C=CC(=O)Nc1cc(Nc2nccc(-c3cn(C4CC4)c4ccccc34)n2)c(OC)cc1OCCN(C)C	8 nM	54	432 nM	5 nM	
C#Cc1cccc(Nc2ncnc3cc(OCCOC)c(OCCOC)cc23)c1 [ERLOTINIB]					IC50 [4]: 20 nM
C=CC(=O)Nc1cc(Nc2nccc(-c3cn(C4CC4)c4ccccc34)n2)c(OC)cc1N1CCSCC1	333 nM	>30	> 10000 nM	734 nM	
C=CC(=O)Nc1cc(Nc2nccc(-c3cn(C4CC4)c4ccccc34)n2)c(OC)cc1OCCCSC	1120 nM	>8.9	> 10000 nM	2320 nM	
C=CC(=O)Nc1cc(Nc2ncc(Cl)c(-c3cn(C4CC4)c4ccccc34)n2)c(OC)cc1SCCN(C)C	8 nM	19.6	157 nM	9 nM	
C=CC(=O)Nc1cc(Nc2ncc(Cl)c(-c3cn(C4CC4)c4ccccc34)n2)c(OC)cc1[S+]([O-])CCN(C)C (stereo not drawn)	9 nM	17.3	156 nM	5 nM	
CN(C)C/C=C/C(=O)Nc1cc2c(Nc3ccc(F)c(Cl)c3)ncnc2cc1O[C@H]1CCOC1 [AFATINIB]					IC50 [5]: 164 nM; IC50 (PC-9 [6]): 0.3 nM
C=CC(=O)Nc1cc(Nc2nccc(-c3cn(C4CC4)c4ccccc34)n2)c(OC)cc1N(C)CCSC	1300 nM	2	2630 nM	1320 nM	
C=CC(=O)Nc1cc(Nc2nccc(-c3cn(C4CC4)c4ccccc34)n2)c(OC)cc1OCCSC	543 nM	18	9770 nM	648 nM	
C=CC(=O)Nc1cc(Nc2nccc(-c3cn(C4CC4)c4ccccc34)n2)c(OC)cc1OCCC[S+](C)[O-] (stereo not drawn)	445 nM	8.5	3760 nM	203 nM	
C=CC(=O)Nc1cccc(Oc2nc(Nc3ccc(N4CCN(C)CC4)cc3OC)ncc2Cl)c1					IC50 (NCI-H1975 [7]): 47 nM; IC50 (PC-9 [6]): 36 nM
C=CC(=O)Nc1cc(Nc2nccc(-c3cn(C4CC4)c4ccccc34)n2)c(OC)cc1SCCN(C)C	21 nM	32.1	674 nM	44 nM	
COc1cc2ncnc(Nc3ccc(F)c(Cl)c3)c2cc1NC(=O)/C=C/CN1CCCCC1 [DACOMITINIB ANHYDROUS]					IC50 (SK-BR-3): 15 nM; IC50 (BT-474): 18 nM
C=CC(=O)Nc1cc(Nc2nccc(-c3cn(C4CC4)c4ccccc34)n2)c(OC)cc1N(C)CCO	74 nM	22.9	1690 nM	64 nM	
C=CC(=O)Nc1cccc(Nc2nc(Nc3ccc(N4CCN(C(C)=O)CC4)cc3OC)ncc2C(F)(F)F)c1 [ROCILETINIB]					IC50 (NCI-H1975 [7]): 23 nM; IC50 (PC-9 [6]): 84 nM
C=CC(=O)Nc1cc(Nc2nccc(-c3cn(C)c4ccccc34)n2)c(OC)cc1N(C)CCN(C)C [OSIMERTINIB]	[…]		924 nM	[…]	IC50 [8]: 2250 nM; TGI (NCI-H1975 [9]): 97.64%; IC50 [10]: 3350 nM; IC50 (HK-2): 2720 nM; Activity (NCI-H1975 [11]): 21 mm3
C=CC(=O)Nc1cc(Nc2nccc(-c3cn(C)c4ccccc34)n2)c(OC)cc1[S+]([O-])CCN(C)C (stereo not drawn)					AUC(0-t) [12]: 635 ng·h/mL; MRT [13]: 0.89 h; clearance [14]: 82.2 mL/min/kg; half-life [15]: 0.62 h; AUC(0-inf) [16]: 406 ng·h/mL; bioavailability [17]: 31.6%; AUC(0-inf) [18]: 652 ng·h/mL; Tmax [19]: 1 h; AUC(0-t) [20]: 402 ng·h/mL; half-life [21]: 1.43 h; Cmax [22]: 275 ng/mL; Cmax [23]: 789 ng/mL; MRT [24]: 2.07 h
C=CC(=O)Nc1cc(Nc2nccc(-c3cn(C4CC4)c4ccccc34)n2)c(OC)cc1N(C)CC[S+](C)[O-] (stereo not drawn)	411 nM	2.8	1140 nM	261 nM	
C=CC(=O)Nc1cc(Nc2nccc(-c3cn(C4CC4)c4ccccc34)n2)c(OC)cc1OCC[S+](C)[O-] (stereo not drawn)	544 nM	8.8	4810 nM	435 nM	

Source: ChEMBL document CHEMBL4706659, “Design, synthesis and biological evaluation of novel 2,4-diaryl pyrimidine derivatives as selective EGFR inhibitors” (Eur J Med Chem, 2021)
